Experimental data: patent US8449896B2, “Pharmaceutical composition having improved solubility” (Daiichi Sankyo Company, Limited, priority 2009, dated 2013)

Test: solubility of compound I in aqueous solutions
Type: physicochemical

solubility in a neutral aqueous solution (neutral aqueous solution (e.g., a neutral buffer)): reduced solubility
solubility in a strongly acidic aqueous solution (strongly acidic aqueous solution): favorable solubility
Compound: CN1CCc2nc(C(=O)N[C@@H]3C[C@@H](C(=O)N(C)C)CC[C@@H]3NC(=O)C(=O)Nc3ccc(Cl)cn3)sc2C1 [compound I, N^1-(5-chloropyridin-2-yl)-N^2-((1S,2R,4S)-4-[(dimethylamino)carbonyl]-2-{[(5-methyl-4,5,6,7-tetrahydrothiazolo[5,4-c]pyridin-2-yl)carbonyl]amino}cyclohexyl)ethanediamide]
